Laboratory results taken from PubChem BioAssay AID1745844 (Carcinogenic Potency Database (CPDB), 2022).
The source made the active and inactive calls. No rule for the calls is given here.

System: rodent lifetime carcinogenesis bioassay, tumor incidence TD50
Test: chronic cancer bioassays in animals – CPDB, compiled studies (AID 1745844)

ClC(Cl)Br
TD50 (mouse, strain B6C3F1, females, by gavage, site: any site (literature study), lesion: several types, types named in the paper, dosed 102 weeks, study length 105 weeks): 62.9 mg/kg/day
TD50 (mouse, strain B6C3F1, females, by gavage, site: liver, lesion: hepatocellular adenoma + hepatocellular carcinoma + neoplastic nodule, dosed 102 weeks, study length 105 weeks): 28.9 mg/kg/day
TD50 (mouse, strain B6C3F1, females, by gavage, site: liver, lesion: hepatocellular adenoma + hepatocellular carcinoma, dosed 102 weeks, study length 105 weeks): 28.9 mg/kg/day
TD50 (mouse, strain B6C3F1, females, by gavage, site: liver, lesion: hepatocellular adenoma, dosed 102 weeks, study length 105 weeks): 36 mg/kg/day
TD50 (mouse, strain B6C3F1, females, by gavage, site: liver, lesion: hepatocellular carcinoma, dosed 102 weeks, study length 105 weeks): 144 mg/kg/day
TD50 (mouse, strain B6C3F1, females, by gavage, site: lung, lesion: alveolar/bronchiolar adenoma + alveolar/bronchiolar carcinoma, dosed 102 weeks, study length 105 weeks): 644 mg/kg/day
TD50 (mouse, strain B6C3F1, females, by gavage, site: multiple organs + spleen, lesion: malignant lymphoma, histiocytic type, dosed 102 weeks, study length 105 weeks): 132 mg/kg/day
TD50 (mouse, strain B6C3F1, males, by gavage, site: kidney, lesion: tubular-cell adenocarcinoma, dosed 102 weeks, study length 104 weeks): 336 mg/kg/day
TD50 (mouse, strain B6C3F1, males, by gavage, site: kidney, lesion: tubular-cell adenoma + tubular-cell adenocarcinoma, dosed 102 weeks, study length 104 weeks): 137 mg/kg/day
TD50 (mouse, strain B6C3F1, males, by gavage, site: kidney, lesion: tubular-cell adenoma, dosed 102 weeks, study length 104 weeks): 215 mg/kg/day
TD50 (mouse, strain B6C3F1, males, by gavage, site: multiple organs, lesion: malignant lymphoma, lymphocytic type, dosed 102 weeks, study length 104 weeks): 74.2 mg/kg/day
TD50 (rat, strain Fischer 344, females, by gavage, site: colon + kidney, lesion: adenocarcinoma, NOS + adenomatous polyp, NOS + tubular-cell adenoma + tubular-cell adenocarcinoma, dosed 102 weeks, study length 104 weeks): 84.8 mg/kg/day
TD50 (rat, strain Fischer 344, females, by gavage, site: colon, lesion: adenocarcinoma, NOS + adenomatous polyp, NOS, dosed 102 weeks, study length 104 weeks): 200 mg/kg/day
TD50 (rat, strain Fischer 344, females, by gavage, site: colon, lesion: adenocarcinoma, NOS, dosed 102 weeks, study length 104 weeks): 411 mg/kg/day
TD50 (rat, strain Fischer 344, females, by gavage, site: colon, lesion: adenomatous polyp, NOS, dosed 102 weeks, study length 104 weeks): 364 mg/kg/day
TD50 (rat, strain Fischer 344, females, by gavage, site: kidney, lesion: tubular-cell adenocarcinoma, dosed 102 weeks, study length 104 weeks): 272 mg/kg/day
TD50 (rat, strain Fischer 344, females, by gavage, site: kidney, lesion: tubular-cell adenoma + tubular-cell adenocarcinoma, dosed 102 weeks, study length 104 weeks): 143 mg/kg/day
TD50 (rat, strain Fischer 344, females, by gavage, site: kidney, lesion: tubular-cell adenoma, dosed 102 weeks, study length 104 weeks): 351 mg/kg/day
TD50 (rat, strain Fischer 344, males, by gavage, site: any site (literature study), lesion: several types, types named in the paper, dosed 102 weeks, study length 104 weeks): 267 mg/kg/day
TD50 (rat, strain Fischer 344, males, by gavage, site: colon + kidney + rectum, lesion: adenocarcinoma, NOS + adenomatous polyp, NOS + tubular-cell adenoma + tubular-cell adenocarcinoma, dosed 102 weeks, study length 104 weeks): 30.3 mg/kg/day
TD50 (rat, strain Fischer 344, males, by gavage, site: colon + rectum, lesion: adenocarcinoma, NOS + adenomatous polyp, NOS, dosed 102 weeks, study length 104 weeks): 30.7 mg/kg/day
TD50 (rat, strain Fischer 344, males, by gavage, site: colon + rectum, lesion: adenocarcinoma, NOS, dosed 102 weeks, study length 104 weeks): 35.6 mg/kg/day
TD50 (rat, strain Fischer 344, males, by gavage, site: colon + rectum, lesion: adenomatous polyp, NOS, dosed 102 weeks, study length 104 weeks): 55.6 mg/kg/day
TD50 (rat, strain Fischer 344, males, by gavage, site: kidney, lesion: tubular-cell adenocarcinoma, dosed 102 weeks, study length 104 weeks): 213 mg/kg/day
TD50 (rat, strain Fischer 344, males, by gavage, site: kidney, lesion: tubular-cell adenoma + tubular-cell adenocarcinoma, dosed 102 weeks, study length 104 weeks): 152 mg/kg/day
TD50 (rat, strain Fischer 344, males, by gavage, site: kidney, lesion: tubular-cell adenoma, dosed 102 weeks, study length 104 weeks): 583 mg/kg/day
TD50 (rat, strain Fischer 344, males, by gavage, site: liver, lesion: hepatocellular adenoma + hepatocellular carcinoma + neoplastic nodule, dosed 102 weeks, study length 104 weeks): 747 mg/kg/day
TD50 (rat, strain Fischer 344, males, by gavage, site: lung, lesion: alveolar/bronchiolar adenoma + alveolar/bronchiolar carcinoma, dosed 102 weeks, study length 104 weeks): 366 mg/kg/day
TD50 (rat, strain Fischer 344, males, by gavage, site: lung, lesion: alveolar/bronchiolar adenoma, dosed 102 weeks, study length 104 weeks): 447 mg/kg/day
TD50 (rat, strain Fischer 344, males, by gavage, site: tunica vaginalis, lesion: mesothelioma, NOS, dosed 102 weeks, study length 104 weeks): 350 mg/kg/day
TD50 (rat, strain Wistar, females, in drinking water, site: liver, lesion: neoplastic nodule, dosed 187 weeks, study length 187 weeks): 544 mg/kg/day
TD50 (rat, strain Wistar, males, in drinking water, site: pituitary gland, lesion: one or several types, types not named, dosed 182 weeks, study length 182 weeks): 911 mg/kg/day

CCCCCCC(=O)C/C=C/CCCCCCCC(=O)OC
TD50 (mouse, strain ST/a, both sexes, in feed, site: all sites, lesion: malignant lymphoma, dosed 42 weeks, study length 84 weeks): 2940 mg/kg/day (inactive)

NNc1nc(-c2ccc([N+](=O)[O-])o2)cs1
TD50 (mouse, strain Swiss, females, in feed, site: any site (literature study), lesion: several types, types named in the paper, dosed 46 weeks, study length 55 weeks): 7.57 mg/kg/day
TD50 (mouse, strain Swiss, females, in feed, site: forestomach, lesion: squamous-cell papilloma, dosed 46 weeks, study length 55 weeks): 16.4 mg/kg/day
TD50 (rat, strain Sprague-Dawley, females, in feed, site: any site (literature study), lesion: several types, types named in the paper, dosed 46 weeks, study length 57 weeks): 2.83 mg/kg/day
TD50 (rat, strain Sprague-Dawley, females, in feed, site: kidney, lesion: several types, types named in the paper, dosed 46 weeks, study length 57 weeks): 36.8 mg/kg/day
TD50 (rat, strain Sprague-Dawley, females, in feed, site: liver, lesion: cystadenoma, dosed 46 weeks, study length 66 weeks): 295 mg/kg/day
TD50 (rat, strain Sprague-Dawley, females, in feed, site: mammary gland, lesion: adenocarcinoma, dosed 46 weeks, study length 57 weeks): 7.79 mg/kg/day
TD50 (rat, strain Sprague-Dawley, females, in feed, site: mammary gland, lesion: adenocarcinoma, dosed 46 weeks, study length 66 weeks): 10.9 mg/kg/day
TD50 (rat, strain Sprague-Dawley, females, in feed, site: mammary gland, lesion: adenofibroma, dosed 46 weeks, study length 57 weeks): 25.2 mg/kg/day
TD50 (rat, strain Sprague-Dawley, females, in feed, site: mammary gland, lesion: several types, types named in the paper, dosed 46 weeks, study length 57 weeks): 2.83 mg/kg/day
TD50 (rat, strain Sprague-Dawley, females, in feed, site: mammary gland, lesion: several types, types named in the paper, dosed 46 weeks, study length 66 weeks): 3.66 mg/kg/day
TD50 (rat, strain Sprague-Dawley, females, in feed, site: salivary gland, lesion: adenocarcinoma, dosed 46 weeks, study length 66 weeks): 145 mg/kg/day
